From patent publication US7517882B2, “Protein kinase inhibitors” (Polaris Group, priority 2006, dated 2009)

Tests used:
PC-3 cells = assay: Inhibition of cell growth (MTT), PC-3 cells; details: Homo sapiens, PC-3, 120 h, read-out: IC50 PC-3
Method: (§1) HCT-116 and PC-3 cells were cultured at 37° C. with 5% CO2 and in 10% fetal bovine serum with McCoy's 5A modified medium and F-12 K medium respectively. Cells were plated on 96 well plates at a density of 2,000-4,000/well in the volume of 100 μL medium. […] The control wells contained 1% dimethylsulfoxide only in their medium. After further incubation of three to five days to allow cells grow before the control cells reach confluence, 15 μL/well MTT reagent (5 mg/mL) were added and incubated for 4 h. After the incubation, the medium was removed and the newly generated formazan solubilized with dimethylsulfoxide (100 μL/well) and measured at 540 nm. The absorption data were fit into equation and calculated for IC50 values through use of the program KaleidaGraph (Synergy Software). The fitting equation for IC50 is y=a+b/(1+(x/IC50)); x is the compound concentration, a is the background absorption at 540 nm, and b is the absorption at zero compound concentration.

HCT-116 cells = assay: Inhibition of cell growth (MTT), HCT-116 cells; details: Homo sapiens, HCT-116, 120 h, read-out: IC50 HCT 116 cells
Method: as §1

human CK2 = target: T1, human CK2 (Homo sapiens, UniProt P68400); assay: CK2 protein kinase inhibition assay (spectrophotometric PK/LDH coupled assay); type: biochemical
T1 construct: Full Length His-tagged Human CK2 was cloned, expressed, and purified; His tag; made in house; host or cells: E. coli
Method: CK2 protein kinase activity was measured through use of a spectrophotometric PK/LDH coupled assay to detect ATP turnover. Full Length His-tagged Human CK2 was cloned, expressed, and purified from an E. coli expression system. The peptide substrate for CK2 phosphorylation was […] (Genscript Corporation, Piscataway, N.J., USA). […] Prior to the addition of ATP to initiate the phosphorylation reaction, CK2 enzyme was pre-incubated with inhibitors and other assay components for 5 min. Progress of the reaction was continuously monitored by the change in UV/Vis absorbance at 340 nm. […] In the case of very potent binding, tight-binding methods were employed to determine Ki.

T1 sequence (P68400 whole entry): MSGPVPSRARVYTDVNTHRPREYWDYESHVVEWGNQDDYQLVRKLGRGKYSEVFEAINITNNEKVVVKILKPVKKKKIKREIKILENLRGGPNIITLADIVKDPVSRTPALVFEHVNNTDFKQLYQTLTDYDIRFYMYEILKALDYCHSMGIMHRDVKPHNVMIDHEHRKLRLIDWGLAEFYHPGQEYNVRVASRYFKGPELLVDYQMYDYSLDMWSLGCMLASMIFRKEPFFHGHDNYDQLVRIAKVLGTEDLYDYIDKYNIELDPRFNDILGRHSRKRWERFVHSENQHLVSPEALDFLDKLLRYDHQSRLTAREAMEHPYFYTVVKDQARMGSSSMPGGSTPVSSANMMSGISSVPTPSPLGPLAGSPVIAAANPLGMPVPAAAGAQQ

| Structure (SMILES) | IC50 (PC-3 cells) | IC50 (HCT-116 cells) | Ki (human CK2) |
| --- | --- | --- | --- |
| O=C1CCCCc2cnn3c(NC4CC4)cc(nc23)Nc2cccc(c2)N1 [Compound 18b] | < 3 µM | < 3 µM | < 0.1 µM |
| CN(C)C1CCN(C(=O)c2cccc(Nc3cc4nc5c(cnn35)CCCCC(=O)Nc3cccc(c3)N4)c2)C1 (centres unmarked) [Compound 18a, (11,14)3,5N-{[(3-Dimethylamino-pyrrolidine-1-carbonyl)-phen-3-yl]-pyrazolo[1,5-a]pyrimidin-2,4-yl-diamino}-(2N,4N)-phenyl-1,5-diaza-cyclotetradecan-6-one] | < 3 µM | < 3 µM | < 0.1 µM |
| CN1CCC(N(C)C(=O)c2cccc(Nc3nc4nc5c(cnn35)CCCCC(=O)Nc3cccc(c3)N4)c2)CC1 [Compound 11o, (11,14)3,5N-{4-[(3-{[methyl(1-methylpiperidin-4-yl)amino]carbonyl}-phenyl)amino]-pyrazolo[1,5-a][1,3,5]triazin-4-yl-amino}-(2N,4N)-phenyl-1,5-diaza-cyclotetradeca-8-one] |  | < 1 µM | < 0.1 µM |
| CCN(CC)CCN(C)C(=O)c1cccc(Nc2nc3nc4c(cnn24)CCCCC(=O)Nc2cccc(c2)N3)c1 [Compound 11s] |  | < 1 µM | < 0.1 µM |
| CN1CC(NC(=O)c2cccc(Nc3nc4nc5c(cnn35)CCCCC(=O)Nc3cccc(c3)N4)c2)C1 [Compound 11m] | < 1 µM | < 1 µM | < 0.1 µM |
| O=C1CCCCc2cnn3c(Nc4cccnc4)nc(nc23)Nc2cccc(c2)N1 [Compound 11d, (11,14)3,5N-{pyrid-3-yl-pyrazolo[1,5-a][1,3,5]triazin-4-yl-amino}-(2N,4N)-phenyl-1,5-diaza-cyclotetradeca-8-one] | < 1 µM | < 1 µM | < 0.1 µM |
| O=C1CCCCc2cnn3c(Nc4cccc(C(=O)N5CC(O)C5)c4)nc(nc23)Nc2cccc(c2)N1 [Compound 11l, (11,14)3,5N-{4-({3-[(3-hydroxyazetidin-1-yl)carbonyl]phenyl}amino)-pyrazolo[1,5-a][1,3,5]triazin-4-yl-amino}-(2N,4N)-phenyl-1,5-diaza-cyclotetradeca-8-one] | < 1 µM | < 1 µM | < 0.1 µM |
| CCN(CC)C1CCN(C(=O)c2cccc(Nc3nc4nc5c(cnn35)CCCCC(=O)Nc3cccc(c3)N4)c2)C1 (centres unmarked) [Compound 11p, (11,14)3,5N-{[(3-{[3-(diethylamino)pyrrolidin-1-yl]carbonyl}phenyl)amino]-pyrazolo[1,5-a][1,3,5]triazin-4-yl-amino}-(2N,4N)-phenyl-1,5-diaza-cyclotetradeca-8-one] | < 1 µM | < 1 µM | < 0.1 µM |

The next lines start with the values.

| IC50 (PC-3 cells) | IC50 (HCT-116 cells) | Ki (human CK2) | Structure (SMILES) |
| --- | --- | --- | --- |
| < 1 µM | < 1 µM | < 0.1 µM | CN(C)C1CCN(C(=O)c2cccc(Nc3nc4nc5c(cnn35)CCCCC(=O)Nc3cccc(c3)N4)c2)C1 (centres unmarked) [Compound 11i] |
|  | < 1 µM | < 0.1 µM | O=C1CCCCc2cnn3c(Nc4cccc(C(=O)N5CCNCC5)c4)nc(nc23)Nc2cccc(c2)N1 [Compound 11r, (11,14)3,5N-{{[3-(piperazin-1-ylcarbonyl)phenyl]amino}-pyrazolo[1,5-a][1,3,5]triazin-4-yl-amino}-(2N,4N)-phenyl-1,5-diaza-cyclotetradeca-8-one] |
| < 1 µM | < 1 µM |  | O=C1CCCCc2cnn3c(NC4CC4)nc(nc23)Nc2cccc(c2)N1 [Compound 11a, (11,14)3,5N-{cyclopropyl-pyrazolo[1,5-a][1,3,5]triazin-4-ylamino}-(2N,4N)-phenyl-1,5-diaza-cyclotetradeca-8-one] |
| < 1 µM | < 1 µM | < 0.1 µM | CN(C)CCN(C)C(=O)c1cccc(Nc2nc3nc4c(cnn24)CCCCC(=O)Nc2cccc(c2)N3)c1 [Compound 11n, (11,14)3,5N-{4-[(3-{[[2-(dimethylamino)ethyl](methyl)-amino]carbonyl}phenyl)amino]-pyrazolo[1,5-a][1,3,5]triazin-4-yl-amino}-(2N,4N)-phenyl-1,5-diaza-cyclotetradeca-8-one] |
| < 1 µM | < 1 µM | < 0.1 µM | CN1CCN(C(=O)c2cccc(Nc3nc4nc5c(cnn35)CCCCC(=O)Nc3cccc(c3)N4)c2)CC1 [Compound 11h, (11,14)3,5N-{3-(4-methylpiperazin-1-ylcarbonyl)phenyl-pyrazolo[1,5-a][1,3,5]triazin-4-yl-amino}-(2N,4N)-phenyl-1,5-diaza-cyclotetradeca-8-one] |
| < 1 µM | < 1 µM | < 0.1 µM | CN(C)CCNC(=O)c1cccc(Nc2nc3nc4c(cnn24)CCCCC(=O)Nc2cccc(c2)N3)c1 [Compound 11k, (11,14)3,5N-{4-{[3-({[2-(dimethylamino)ethyl]-amino}carbonyl)phenyl]amino}-pyrazolo[1,5-a][1,3,5]triazin-4-yl-amino}-(2N,4N)-phenyl-1,5-diaza-cyclotetradeca-8-one] |
| < 1 µM | < 1 µM | < 0.1 µM | CCN(CC)C(=O)c1cccc(Nc2nc3nc4c(cnn24)CCCCC(=O)Nc2cccc(c2)N3)c1 [Compound 11j, (11,14)3,5N-{4-[(3-{3-(diethylamino)carbonyl}phenyl)amino]-pyrazolo[1,5-a][1,3,5]triazin-4-yl-amino}-(2N,4N)-phenyl-1,5-diaza-cyclotetradeca-8-one] |
| < 1 µM | < 1 µM | < 0.1 µM | CCN(CC)C1CN(C(=O)c2cccc(Nc3nc4nc5c(cnn35)CCCCC(=O)Nc3cccc(c3)N4)c2)C1 [Compound 11q, (11,14)3,5N-{[(3-{[3-(diethylamino)azetidin-1-yl]carbonyl}-phenyl)amino]-pyrazolo[1,5-a][1,3,5]triazin-4-yl-amino}-(2N,4N)-phenyl-1,5-diaza-cyclotetradeca-8-one] |
| < 1 µM | < 1 µM | < 0.1 µM | CCOc1cccc(Nc2nc3nc4c(cnn24)CCCCC(=O)Nc2cccc(c2)N3)c1 [Compound 11e, (11,14)3,5N-{(3-ethoxyphenyl)-pyrazolo[1,5-a][1,3,5]triazin-4-yl-amino}-(2N,4N)-phenyl-1,5-diaza-cyclotetradeca-8-one] |
| < 1 µM | < 1 µM | < 0.1 µM | CN1CCC(N(C)C(=O)c2cccc(Nc3nc4nc5c(cnn35)CCCCC(=O)Nc3cccc(c3)N4)c2)C1 (centres unmarked) [Compound 11g, (11,14)3,5N-{3-(3-{[methyl(1-methylpyrrolidin-3-yl)amino]carbonyl}phenyl)-pyrazolo[1,5-a][1,3,5]triazin-4-yl-amino}-(2N,4N)-phenyl-1,5-diaza-cyclotetradeca-8-one] |
